Biological target: T1, human GPR119 (Homo sapiens, UniProt Q8TDV5)
T1 construct: expression vector for human GPR119 cDNA (Acc. No. NP_848566); expressed in transfected cells
T1 sequence (Q8TDV5 1-335): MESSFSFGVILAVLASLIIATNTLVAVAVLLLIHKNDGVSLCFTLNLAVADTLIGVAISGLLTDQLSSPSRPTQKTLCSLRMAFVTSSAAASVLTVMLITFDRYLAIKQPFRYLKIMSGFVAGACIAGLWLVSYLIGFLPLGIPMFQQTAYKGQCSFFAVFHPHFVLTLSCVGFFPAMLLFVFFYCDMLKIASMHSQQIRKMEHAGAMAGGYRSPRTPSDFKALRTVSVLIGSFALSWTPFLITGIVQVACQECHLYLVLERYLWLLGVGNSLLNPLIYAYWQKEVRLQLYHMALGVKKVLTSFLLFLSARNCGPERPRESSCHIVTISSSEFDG
Assay: AlphaScreen cAMP assay in MIN6 cells stably transfected with human GPR119
Assay type: cell-based
Conditions: Min-6/hGPR119 cells, AlphaScreen cAMP Assay Kit, 45 minutes incubation at room temperature
Description: The compounds of formula I according to the invention modulate the activity of the G-protein-coupled receptor GPR119. The effect of the compounds on the activation of GPR119 and on the stimulation of intracellular cAMP concentration is determined using the AlphaScreen cAMP Assay Kit (Cat. No. #6760625R) made by PerkinElmer.
MIN6 cells [Miyazaki J et al. Endocrinology. 1990 July; 127(1):126-32] are stably transfected with an expression vector for human GPR119 cDNA (Acc. No. NP_848566). Min-6/hGPR119 cells are cultured in DMEM, 10% FBS, 50 μM β-mercaptoethanol, 0.3 mg/mL Geniticin, 2 mM GlutaMAX at 37° C. 5% CO2. For the assay, the cells are seeded in Optiplates (white, 384-well, 160 W-barcoded, TC, sterile with lid, Cat. No. #6007688 (Perkin Elmer); 10000 cells/well; 50 μl). The plates covered with lids are then incubated for 24 hours at 37° C./5% CO2. After the medium is aspirated from the wells completely, 10 μl of the test compound are added, the compounds are diluted using stimulating buffer (140 mM NaCl, 3.6 mM KCl, 0.5 mM NaH2PO4, 0.5 mM MgSO4, 1.5 mM CaCl2, 10 mM Hepes, 5 mM NaHCO3; pH 7.4. 0.5 mM IBMX and 0.1% BSA, the final DMSO concentration is 1%). After 45 minutes incubation at room temperature (approx. 20° C.), the cAMP concentrations are determined using the AlphaScreen cAMP Assay Kit (Cat. No. #6760625R from PerkinElmer).

SMILES | EC50 [nM]
O=C(c1ccc(-c2cnco2)cc1)N(C1CC1)C1CCN(c2ccc(Br)cn2)CC1 [Example 32, N-[1-(5-Bromo-pyridin-2-yl)-piperidin-4-yl]-N-cyclopropyl-4-oxazol-5-yl-benzamide] | 38
O=C(c1ccc(-c2cnco2)cc1)N(C1CC1)C1CCN(c2ccc(F)cn2)CC1 [Example 33, N-Cyclopropyl-N-[1-(5-fluoro-pyridin-2-yl)-piperidin-4-yl]-4-oxazol-5-yl-benzamide] | 276
Cc1ccc(N2CCC(N(C(=O)c3ccc(-c4cnco4)cc3)C3CC3)CC2)nc1 [Example 34, N-Cyclopropyl-N-[1-(5-methyl-pyridin-2-yl)-piperidin-4-yl]-4-oxazol-5-yl-benzamide] | 85
O=C(c1ccc(-c2cnco2)cc1)N(C1CC1)C1CCN(c2nc(Cl)ns2)CC1 [Example 35, N-[1-(3-Chloro-[1,2,4]thiadiazol-5-yl)-piperidin-4-yl]-N-cyclopropyl-4-oxazol-5-yl-benzamide] | 53
CC(C)Nc1nsc(N2CCC(N(C(=O)c3ccc(-c4cnco4)cc3)C3CC3)CC2)n1 [Example 36, N-Cyclopropyl-N-[1-(3-isopropylamino-[1,2,4]thiadiazol-5-yl)-piperidin-4-yl]-4-oxazol-5-yl-benzamide] | 83
CC(C)Oc1nsc(N2CCC(N(C(=O)c3ccc(-c4cnco4)cc3)C3CC3)CC2)n1 [Example 37, N-Cyclopropyl-N-[1-(3-isopropoxy-[1,2,4]thiadiazol-5-yl)-piperidin-4-yl]-4-oxazol-5-yl-benzamide] | 55
CCc1noc(N2CCC(N(C(=O)c3ccc(-c4ccc(C(N)=O)cc4)cc3)C3CC3)CC2)n1 [Example 38, Biphenyl-4,4′-dicarboxylic acid 4-amide 4′-{cyclopropyl-[1-(3-ethyl-[1,2,4]oxadiazol-5-yl)-piperidin-4-yl]-amide}] | 204
NC(=O)c1ccc(-c2ccc(C(=O)N(C3CC3)C3CCN(c4nc(-c5ccccc5)no4)CC3)cc2)cc1 [Example 39, Biphenyl-4,4′-dicarboxylic acid 4′-amide 4-{cyclopropyl-[1-(3-phenyl-[1,2,4]oxadiazol-5-yl)-Piperidin-4-yl]-amide}] | 87
O=C(c1ccc(-c2cnco2)cc1)N(C1CC1)C1CCN(c2nc(-c3ccc(Br)cc3)no2)CC1 [Example 40, N-{1-[3-(4-Bromo-phenyl)-[1,2,4]oxadiazol-5-yl]-piperidin-4-yl}-N-cyclopropyl-4-oxazol-5-yl-benzamide] | 11
Cc1ncoc1-c1ccc(C(=O)N(C2CC2)C2CCN(c3nc(-c4ccccc4)no3)CC2)cc1 [Example 41, N-Cyclopropyl-4-(4-methyl-oxazol-5-yl)-N-[1-(3-phenyl-[1,2,4]oxadiazol-5-yl)-piperidin-4-yl]-benzamide] | 38
Cc1ncoc1-c1ccc(C(=O)N(C2CC2)C2CCN(c3nc(C(C)C)no3)CC2)cc1 [Example 42, N-Cyclopropyl-N-[1-(3-isopropyl-[1,2,4]oxadiazol-5-yl)-piperidin-4-yl]-4-(4-methyl-oxazol-5-yl)-benzamide] | 17
Cc1ncoc1-c1ccc(C(=O)N(C2CC2)C2CCN(c3ncc(Cl)cn3)CC2)cc1 [Example 43, N-[1-(5-Chloro-pyrimidin-2-yl)-piperidin-4-yl]-N-cyclopropyl-4-(4-methyl-oxazol-5-yl)-benzamide] | 46

Second part, the compound after the results:

EC50 [nM] | SMILES
31 | COc1ccc(-c2noc(N3CCC(N(C(=O)c4ccc(-c5cnco5)cc4)C4CC4)CC3)n2)cc1 [Example 44, N-Cyclopropyl-N-{1-[3-(4-methoxy-phenyl)-[1,2,4]oxadiazol-5-yl]-piperidin-4-yl}-4-oxazol-5-yl-benzamide]
259 | CCOC(=O)c1noc(N2CCC(N(C(=O)c3ccc(-c4cnco4)cc3)C3CC3)CC2)n1 [Example 45, 5-{4-[Cyclopropyl-(4-oxazol-5-yl-benzoyl)-amino]-piperidin-1-yl}-[1,2,4]oxadiazole-3-carboxylic acid ethyl ester]
731 | CC(C)(O)c1noc(N2CCC(N(C(=O)c3ccc(-c4cnco4)cc3)C3CC3)CC2)n1 [Example 46, N-Cyclopropyl-N-{1-[3-(1-hydroxy-1-methyl-ethyl)-[1,2,4]oxadiazol-5-yl]-piperidin-4-yl}-4-oxazol-5-yl-benzamide]
37 | O=C(c1ccc(-c2cnco2)cc1)N(C1CC1)C1CCN(c2noc(-c3ccccc3)n2)CC1 [Example 47, N-Cyclopropyl-4-oxazol-5-yl-N-[1-(5-phenyl-[1,2,4]oxadiazol-3-yl)-piperidin-4-yl]-benzamide]
47 | CCc1nc(N2CCC(N(C(=O)c3ccc(-c4cnco4)cc3)C3CC3)CC2)no1 [Example 48, N-Cyclopropyl-N-[1-(5-ethyl-[1,2,4]oxadiazol-3-yl)-piperidin-4-yl]-4-oxazol-5-yl-benzamide]
14 | CC(C)c1nc(N2CCC(N(C(=O)c3ccc(-c4cnco4)cc3)C3CC3)CC2)no1 [Example 49, N-Cyclopropyl-N-[1-(5-isopropyl-[1,2,4]oxadiazol-3-yl)-piperidin-4-yl]-4-oxazol-5-yl-benzamide]
277 | O=C(c1ccc(-c2cnco2)cc1)N(C1CC1)C1CCN(c2noc(-c3cnccn3)n2)CC1 [Example 50, N-Cyclopropyl-4-oxazol-5-yl-N-[1-(5-pyrazin-2-yl-[1,2,4]oxadiazol-3-yl)-piperidin-4-yl]-benzamide]
56 | O=C(c1ccc(-c2cnco2)cc1)N(C1CC1)C1CCN(c2noc(C3CC3)n2)CC1 [Example 51, N-Cyclopropyl-N-[1-(5-cyclopropyl-[1,2,4]oxadiazol-3-yl)-piperidin-4-yl]-4-oxazol-5-yl-benzamide]
17 | O=C(c1ccc(-c2cnco2)cc1)N(C1CC1)C1CCN(c2noc(C3CCC3)n2)CC1 [Example 52, N-[1-(5-Cyclobutyl-[1,2,4]oxadiazol-3-yl)-piperidin-4-yl]-N-cyclopropyl-4-oxazol-5-yl-benzamide]
99 | CCc1cnc(N2CCC(N(C(=O)c3ccc(-c4cnco4)cc3)C3CC3)C(C)C2)nc1 (stereo not drawn) [Example 53, N-Cyclopropyl-N-[1-(5-ethyl-pyrimidin-2-yl)-3-methyl-piperidin-4-yl]-4-oxazol-5-yl-benzamide]
43 | CC1CN(c2nc(-c3ccccc3)no2)CCC1N(C(=O)c1ccc(-c2cnco2)cc1)C1CC1 (stereo not drawn) [Example 54, N-Cyclopropyl-N-[3-methyl-1-(3-phenyl-[1,2,4]oxadiazol-5-yl)-piperidin-4-yl]-4-oxazol-5-yl-benzamide]
1150 | O=C(c1ccc(-c2cnco2)cc1)N(C1CC1)C1CCN(c2nc(CC3CCOCC3)no2)CC1 [Example 55, N-Cyclopropyl-4-oxazol-5-yl-N-{1-[3-(tetrahydro-pyran-4-ylmethyl)-[1,2,4]oxadiazol-5-yl]-piperidin-4-yl}-benzamide]
159 | O=C(c1ccc(-c2cnco2)cc1)N(C1CC1)C1CCN(c2nc(C3CCOCC3)no2)CC1 [Example 56, N-Cyclopropyl-4-oxazol-5-yl-N-{1-[3-(tetrahydro-pyran-4-yl)-[1,2,4]oxadiazol-5-yl]-piperidin-4-yl}-benzamide]
22 | C=CCCc1noc(N2CCC(N(C(=O)c3ccc(-c4cnco4)cc3)C3CC3)CC2)n1 [Example 57, N-[1-(3-But-3-enyl-[1,2,4]oxadiazol-5-yl)-piperidin-4-yl]-N-cyclopropyl-4-oxazol-5-yl-benzamide]
629 | CC(C)(CO)c1noc(N2CCC(N(C(=O)c3ccc(-c4cnco4)cc3)C3CC3)CC2)n1 [Example 58, N-Cyclopropyl-N-{1-[3-(2-hydroxy-1,1-dimethyl-ethyl)-[1,2,4]oxadiazol-5-yl]-piperidin-4-yl}-4-oxazol-5-yl-benzamide]
23 | CCCc1nc(N2CCC(N(C(=O)c3ccc(-c4cnco4)cc3)C3CC3)CC2)no1 [Example 59, N-Cyclopropyl-4-oxazol-5-yl-N-[1-(5-propyl-[1,2,4]oxadiazol-3-yl)-piperidin-4-yl]-benzamide]
50 | O=C(c1ccc(-c2cnco2)cc1)N(C1CC1)C1CCN(c2nc(CCC(F)(F)F)no2)CC1 [Example 60, N-Cyclopropyl-4-oxazol-5-yl-N-{1-[3-(3,3,3-trifluoro-propyl)-[1,2,4]oxadiazol-5-yl]-piperidin-4-yl}-benzamide]
52 | Cc1cnc(N2CCC(N(C(=O)c3ccc(-c4cnco4)cc3)C3CC3)CC2)cn1 [Example 61, N-Cyclopropyl-N-[1-(5-methyl-pyrazin-2-yl)-piperidin-4-yl]-4-oxazol-5-yl-benzamide]

— patent US8822471B2, “Compounds, pharmaceutical compositions and uses thereof” (Boehringer Ingelheim International GmbH, priority 2011, dated 2014)
